Experimental data: US11298333B1, “Methods of reducing the risk of cardiovascular events in a subject” (Amarin Pharmaceuticals Ireland Limited, priority 2018, dated 2022)

Assays:
[1] = test system: TG, non-HDL-C, LDL-C, HDL-C, apo B, hsCRP; test: REDUCE-IT: fasting lipid, lipoprotein and inflammatory biomarkers over time; assay type: in vivo, human; conditions: Year 2; ITT
Description: Fasting Lipid Profile: The fasting lipid panel included: TG, TC, LDL-C, HDL-C, non-HDL-C, and VLDL-C. At all visits, LDL-C was calculated using the Friedewald equation. At Visit 1 and Visit 1.1 direct LDL-C were used if at the same visit TG >400 mg/dL (4.52 mmol/L). These LDL-C values were used for the evaluation of the LDL-C inclusion criterion (LDL-C qualifying measurements for randomization) and for the assessment of changes in the statin therapy when LDL-C was not at goal. […] In addition, irrespective of the TG levels, at Visit 2 (0 Months of Follow-up, baseline) and at Visit 4 (12 Months of Follow-up), LDL-C were measured by preparative ultracentrifugation. […] Hopkins LDL-C was calculated for each visit. […]
The fasting lipid panel was tested at Screening (Visit 1 or Visit 1.1), Randomization visit (Visit 2; Day 0), Visit 3 (Day 120; ˜4 Months) and all other follow-up visits including the last visit. For change from baseline to 1 year preparative ultracentrifugation measurements for LDL-C were analyzed, unless this value was missing. […] In addition, change from baseline to day 120 in LDL-C utilizing Friedewald's and Hopkins methods was analyzed, using the arithmetic mean of LDL-C obtained at Visit 2 (Day 0) and the preceding Visit 1 (or Visit 1.1). […] LDL-C according to Hopkins was calculated at each visit. […]

[2] = REDUCE-IT: blood pressure, repeated-measurements analysis of change from baseline; assay type: in vivo, human; conditions: 4 g per day; ITT; mixed effects model; exploratory
Description: Blood pressure was measured using a standardized process: • Patient sat for […] with feet flat on the floor and measurement arm supported so that the midpoint of the manometer cuff was at heart level; and • Used a mercury sphygmomanometer or automatic blood pressure device with an appropriately sized cuff with the bladder centered over the brachial artery.
Blood pressure was recorded to the nearest 2 mmHg mark on the manometer or to the nearest whole number on an automatic device. A blood pressure reading was repeated 1 to 2 minutes later, and the second reading recorded to the nearest 2 mmHg mark.
It is contemplated that a number of factors contribute to the significant reduction in the cardiovascular risk. Without intending to be bound by any particular theory, one of the contributing factors might relate to the dose and formulation of the icosapent ethyl administered to the patients, in marked contrast to previous studies of omega-3 fatty acid studies. An additional contributing factor could relate to the patients' blood pressure. […] These differences appear to be modest, but it is contemplated, that they might contribute to the benefits of icosapent ethyl. […]

CC/C=C\C/C=C\C/C=C\C/C=C\C/C=C\CCCC(=O)OCC [Icosapent Ethyl, eicosapentaenoic acid ethyl ester]
Triglycerides median absolute change from baseline [1]: 85 mg/dL
Average placebo-corrected reduction from baseline in diastolic blood pressure [2]: 0.5 mm Hg
Average placebo-corrected reduction from baseline in systolic blood pressure [2]: 1.3 mm Hg
